Source: patent publication US6313090A, “Methods for treating parasitic infection using thiopeptides” (The United States of America as represented by the …, priority 2000, dated 2001)

How the values were obtained:
[1] = system: P. falciparum (strain 3D7); test: Assay of growth inhibition, [3H]hypoxanthine incorporation; format: cell-based; conditions: in vitro culture; [3H]hypoxanthine uptake and incorporation
Method: Assay of Growth inhibition. Thiostrepton (1525 u/mg; Calbiochem) and anisomycin (Sigma) were dissolved at 100 mM in DMSO (Pierce). P. falciparum (strain 3D7) (44) was maintained in culture with human erythrocytes (5% hematocrit) in RPMI-1640 (Life Technologies) supplemented with HEPES and sodium bicarbonate and human sera (10%) under standard conditions (18,19). The growth inhibition assay was conducted as described (20). Briefly, the parasitemia was adjusted to 0.1% parasitemia, 2.5% hematocrit and 200 μl aliquots placed in wells of a microtitre dish. Serial dilutions of drugs were made in RPMI. Thiostrepton was diluted to 10 mM in DMSO before the serial dilutions in RPMI. Aliquots (20 μl) were added in triplicate to the cultures in the microtitre plate, mixing well. At the highest concentrations (final 0.2mM), thiostrepton precipitates. After incubation for 48 hours under standard conditions, [2,8-^3 H]-hypoxanthine Moravek Biochemicals, 12.5 Ci/mmol) in RPMI (20 μl, 0.05 mCi/ml) was added to each well. After incubation for a further 24 hours, the cultures were lysed and incorporated radioactivity was measured with an automated counter.
Assay of inhibition. The effect of thiostrepton on growth and protein synthesis of P. falciparum was compared to anisomycin, since the effect of both of these drugs is on protein synthesis. To assay the effect of thiostrepton and anisomycin on the growth of P. faciparum, inhibition of the uptake and incorporation of [^3 H]hypoxanthine was quantitated at serial dilutions of the drugs on an in vitro culture of P. falciparum. […] Inhibition of the incorporation of [^3 H]leucine was also tested at the same dilutions of the drugs. For anisomycin, total protein synthesis was inhibited 50% at the IC50 (0.511 μM) for inhibition of growth, with the concentration-response almost superimposable on that of protein synthesis. […] This would occur if organelle protein synthesis was the target of inhibition (29,30).

C. parvum GCH1 oocysts = test: Intact C. parvum oocyst assay on MDBKF5D2 cell monolayers, immunofluorescence; format: cell-based
Method: In vitro doses of drugs. Thiostrepton (Calbiochem) was dissolved in sterile complete Dulbecco's Modified Eagle Medium (DMEM) supplemented with dimethyl sulfoxide (DMSO) at 0.2% and tested at concentrations of 800, 400, 200, and 100, 10, 1 and 0.1 μg/ml.
(§1) Intact C. parvum oocyst asset 3.0×10^4 C. parvum GCH1 oocysts per well were incubated in the above-mentioned concentrations of drug at 37° C. (8% CO2) on confluent MDBKF5D2 cell monolayers in 96 well microtiter plates. The level of infection in each well was determined and analyzed by immunofluorescence assay at 48 hours, using C. parvum sporozoite rabbit anti-serum (0.1%) and fluorescein-conjugated goat anti-rabbit antibody (1.0%). Percent inhibition was calculated by subtracting the mean parasite/drug from the mean parasitelmedium, divided by the mean parasite/medium, all of which was multiplied by 100. The analysis was performed using MCID and an inverted microscope.
In vitro doses of drugs. Thiostrepton (Calbiochem) and Phavic (NTZ) were dissolved in sterile complete Dulbecco's Modified Eagle Medium (DMEM) supplemented with dimethyl sulfoxide (DMSO) at 0.2% and tested at concentrations of 800, 400, 200, and 100 μg/ml. NTZ was tested at concentrations of 100, 10, 1 and 0.1 μg/ml. Paromomycin (Sigma) was dissolved in DMEM and tested at concentrations of 2000, 1000, 500 and 250 μg/ml.
as §1, with “assay .” for “asset”, “plates. For some monolayers, the oocysts were incubated in DMEM on the cell monolayers for four hours, at which time the monolayers were washed and then drug was added to the wells.” for “plates.”, “parasite/medium,” for “parasitelmedium,”
In vitro doses of drugs. Thiostrepton (Calbiochem), Phavic (NTZ) were dissolved in sterile complete Dulbecco's Modified Eagle Medium (DMEM) supplemented with dimethyl sulfoxide (DMSO) at 0.2%. Thiostrepton was tested at a concentration of 800 μg/ml. NTZ was tested at a concentration of 10 μg/ml. Paromomycin was dissolved in DMEM and tested at 2000 μg/ml. Cell monolayers were infected and washed, followed by the addition of drug at time intervals of 0, 2, 4, 8 and 24 hours.
as §1, with “assay.” for “asset”, “analyze” for “analyzed”, “parasite/medium,” for “parasitelmedium,”

[2] = system: P. falciparum (strain 3D7); conditions: concentration used, near the IC99 value; cited from earlier work
[3] = system: rpoB/C mRNA encoded by the 35-kb plastid-like organelle genome; format: cell-based, P. falciparum; conditions: thiostrepton at 8 μM, rifampin at 80 μM
Method: As of organelle and cyloplasmic transcript levels. RNA polymerase transcript levels were assessed by comparing the amounts of RNA synthesized at timepoints following drug treatment. Cultures of P. falciparum (3.2% parasitemia, 5% hematocrit) were treated with thiostrepton at 8 μM and rifampin (Sigma) at 80 μM; near the IC99 values (this study and ref. 22). Aliquots (5 ml) of treated and control cultures were removed and immediately processed for RNA with a guanidinium thiocyanate solution, according to the manufacturer's directions (RNAgents, Promega). All RNA samples were dissolved in 50 μl DEPC-treated water, DNase I treated as previously described (23) and an aliquot (1 μl) was removed for RT-PCR First strand synthesis of cDNA was completed with a random hexamer (Superscript Preamplification System, Life Technologies). One-tenth of the CDNA product was utilized for PCR of rpoB/C, MSA1, and rRNA. Primers corresponding to the 3' region of rpoB, 5'-GGGCTTTAGAAGCTTTTGG-3' (SEQ ID NO:1), and the 5' region of rpoC, 5'-[…]-3' (SEQ ID NO:2) were applied as described (2,3) for PCR of nascent rpoB/C transcripts. Reactions were cycled with the following parameters: 94° C./30 seconds, 42° C./30 seconds, 72° C./60 seconds, 35 cycles. Primers for amplification of nucleotide 64 to 614 of MSA1 with 5'-GTGTGATAATATTCATGG-3' (SEQ ID NO:3) and 5'-GGAGAGCATTTGGTG-3' (SEQ ID NO:4)(24) and the small subunit rRNA with oligonucleotides 841 and 844 (23) were used for amplification reactions following the parameters in the respective references except with 35 cycles. Samples were also analyzed after 25 cycles of amplification to ensure detection in the linear range of the amplification reaction, with similar results. Following electrophoresis of aliquots from the amplification reactions on 1% agarose:TBE gels, samples were transferred to nylon membranes (GeneScreen Plus, DuPont) and hybridized as described (25). The amplification products were probed with 5'-^32 P-labeled oligonucleotides. The rpoB/C products were probed with 5'-[…]-3' (SEQ ID NO:5) (nucleotide 2009-2030 of rpoB) and 5'-CGGAGAGGTATTAATACC-3' (SEQ ED NO:6) (nucleotide 108-125 of rpoC), in 5×SSC, 10 mM sodium phosphate, 0.05% sodium pyrophosphate, 1% sodium dodecyl sulfate, 5×Denhardt's solution, 100 μg/ml yeast tRNA, 42° C. and washed in the hybridization solution lacking Denhardt's and tRNA at 37° C., three times. The final wash was 1×SSC, 0.5% sodium dodecyl sulfate, 42° C. followed by autoradiography. The same results were obtained with either probe. The MSA1 amplification products were similarly probed with 5'-[…]-3' (SEQ ID NO:7) and the rRNA products with oligonucleotide 842 (23).
The target of inhibition by thiostrepton. […]

[4] = Table 4 Washed at 4 hours, 1 μg/ml
[5] = Table 4 Washed at 4 hours, 10 μg/ml
[6] = Table 4 Washed at 4 hours, .1 μg/ml
[7] = Table 5, 10 μg/ml, drug added at 0 hrs
[8] = Table 5, 10 μg/ml, drug added at 2 hrs
[9] = Table 5, 10 μg/ml, drug added at 4 hrs
[10] = Table 5, 10 μg/ml, drug added at 8 hrs
[11] = Table 5, 10 μg/ml, drug added at 24 hrs

COc1ccc(C[C@H]2NC[C@H](O)[C@H]2OC(C)=O)cc1 [anisomycin]
IC50 [1]: 500 nM

CC(=O)Oc1ccccc1C(=O)Nc1ncc([N+](=O)[O-])s1 [NTZ]
Inhibition Percent (C. parvum GCH1 oocysts; Table 3 Unwashed, 1 μg/ml): 43.60% | Inhibition Score (C. parvum GCH1 oocysts; Table 3 Unwashed, 1 μg/ml): 1 (1: 31-55%) | Parasite Count (C. parvum GCH1 oocysts; Table 3 Unwashed, 1 μg/ml): 694.75 | Inhibition Percent (C. parvum GCH1 oocysts; Table 3 Unwashed, 10 μg/ml): 92.91% | Inhibition Score (C. parvum GCH1 oocysts; Table 3 Unwashed, 10 μg/ml): 4 (4: 91-100%) | Parasite Count (C. parvum GCH1 oocysts; Table 3 Unwashed, 10 μg/ml): 87.31 | Inhibition Percent (C. parvum GCH1 oocysts; Table 3 Unwashed, .1 μg/ml): 10.31% | Inhibition Score (C. parvum GCH1 oocysts; Table 3 Unwashed, .1 μg/ml): 0 (0: 0-30%) | Parasite Count (C. parvum GCH1 oocysts; Table 3 Unwashed, .1 μg/ml): 1104.81 | Inhibition Percent (C. parvum GCH1 oocysts; [4]): 83.27% | Inhibition Score (C. parvum GCH1 oocysts; [4]): 3 (3: 71-90%) | Parasite Count (C. parvum GCH1 oocysts; [4]): 233.44 | Inhibition Percent (C. parvum GCH1 oocysts; [5]): 93.12% | Inhibition Score (C. parvum GCH1 oocysts; [5]): 4 (4: 91-100%) | Parasite Count (C. parvum GCH1 oocysts; [5]): 96.06 | Inhibition Percent (C. parvum GCH1 oocysts; [6]): 4.42% | Inhibition Score (C. parvum GCH1 oocysts; [6]): 0 (0: 0-30%) | Parasite Count (C. parvum GCH1 oocysts; [6]): 1334.06 | Inhibition Percent (C. parvum GCH1 oocysts; [7]): 91.12% | Inhibition Score (C. parvum GCH1 oocysts; [7]): 4 (4: 91-100%) | Parasite Count (C. parvum GCH1 oocysts; [7]): 113.06 | Inhibition Percent (C. parvum GCH1 oocysts; [8]): 95.76% | Inhibition Score (C. parvum GCH1 oocysts; [8]): 4 (4: 91-100%) | Parasite Count (C. parvum GCH1 oocysts; [8]): 53.94 | Inhibition Percent (C. parvum GCH1 oocysts; [9]): 91.18% | Inhibition Score (C. parvum GCH1 oocysts; [9]): 4 (4: 91-100%) | Parasite Count (C. parvum GCH1 oocysts; [9]): 112.31 | Inhibition Percent (C. parvum GCH1 oocysts; [10]): 86.01% | Inhibition Score (C. parvum GCH1 oocysts; [10]): 3 (3: 71-90%) | Parasite Count (C. parvum GCH1 oocysts; [10]): 178.13 | Inhibition Percent (C. parvum GCH1 oocysts; [11]): 60.60% | Inhibition Score (C. parvum GCH1 oocysts; [11]): 2 (2: 56-70%) | Parasite Count (C. parvum GCH1 oocysts; [11]): 501.63 | activity when drug is added 24 hours after infection (C. parvum GCH1 oocysts; intracellular stages only): still highly inhibitory

CO[C@H]1/C=C/O[C@@]2(C)Oc3c(C)c(O)c4c(O)c(c(/C=N/N5CCN(C)CC5)c(O)c4c3C2=O)NC(=O)/C(C)=C\C=C\[C@H](C)[C@H](O)[C@@H](C)[C@@H](O)[C@@H](C)[C@H](OC(C)=O)[C@@H]1C [rifampin]
IC99 (near) [2]: ~80 µM | decay of mRNA corresponding to rpoB/C, time of drug treatment [3]: ≤ 6 h
